Laboratory results reported in patent publication US9676754B2, “Triazolone compounds and uses thereof” (Inception 2, Inc., priority 2012, dated 2017).

Molecular target: T1, Human PPARα (Homo sapiens, UniProt Q07869)
T1 construct: host or cells: proprietary non-human mammalian cells
T1 sequence (Q07869 1-468): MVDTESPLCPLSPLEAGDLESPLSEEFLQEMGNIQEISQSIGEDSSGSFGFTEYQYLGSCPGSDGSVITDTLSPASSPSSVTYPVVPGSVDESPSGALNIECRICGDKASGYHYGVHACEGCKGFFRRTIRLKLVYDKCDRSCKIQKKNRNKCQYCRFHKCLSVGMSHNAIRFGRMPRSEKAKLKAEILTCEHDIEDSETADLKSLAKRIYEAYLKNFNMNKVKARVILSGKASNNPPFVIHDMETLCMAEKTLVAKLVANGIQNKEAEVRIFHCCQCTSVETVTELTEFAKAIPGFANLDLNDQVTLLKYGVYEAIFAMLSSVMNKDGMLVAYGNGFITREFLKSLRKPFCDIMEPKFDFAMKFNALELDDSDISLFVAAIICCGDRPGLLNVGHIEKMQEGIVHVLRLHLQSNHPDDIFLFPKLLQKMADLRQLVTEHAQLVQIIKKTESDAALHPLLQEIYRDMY
Assay: Human PPARα Reporter Assay (luciferase)
Assay type: cell-based
Details: antagonist activity, luciferase reporter cells, overnight incubation; read-out: Human PPARα Reporter Assay-Luciferase IC50
Method: Human PPARα Reporter Assay
The screening of test compounds for agonist or antagonist activities against human PPARα receptors was performed using a commercial kit, Human PPARα Reporter Assay System (Indigo Biosciences, Cat. #IB00111).
This nuclear receptor assay system utilizes proprietary non-human mammalian cells engineered to provide constitutive, high-level expression of Human PPARα. Because these cells incorporate a PPARα-responsive luciferase reporter gene, quantifying expressed luciferase activity provides a sensitive surrogate measure of PPARα activity in the treated cells. The primary application of this reporter assay system is in the screening of test samples to quantify any functional activity, either agonist or antagonist, that they may exert against human PPARα. […] Briefly, the reporter cells are dispensed into wells of the assay plate and then immediately dosed with test compounds. Following an overnight incubation, the treatment media are discarded and Luciferase Detection Reagent (LDR) is added. The intensity of light emission from the ensuing luciferase reaction provides a sensitive measure that is directly proportional to the relative level of PPARα activation in the reporter cells.

SMILES | IC50 [nM]
CCOc1ccc(-c2cccc(CCCc3nn(Cc4ccc(C(C)(C)C)cc4)c(=O)n3CC)c2)cc1C(=O)O [Example 10, 3′-(3-(1-(4-(tert-Butyl)benzyl)-4-ethyl-5-oxo-4,5-dihydro-1H-1,2,4-triazol-3-yl)propyl)-4-ethoxy-[1,1′-biphenyl]-3-carboxylic acid] | 211
CCn1c(CCCc2cccc(-c3ccc(OCC4CC4)c(CC(=O)O)c3)c2)nn(Cc2ccc(C(C)(C)C)cc2)c1=O [Example 16, 2-(3′-(3-(1-(4-(tert-Butyl)benzyl)-4-ethyl-5-oxo-4,5-dihydro-1H-1,2,4-triazol-3-yl)propyl)-4-(cyclopropylmethoxy)-[1,1′-biphenyl]-3-yl)acetic acid] | 141
CCn1c(CCCc2cccc(-c3ccc(CC(=O)O)cc3)c2)nn(Cc2ccc(C(C)(C)C)cc2)c1=O [Example 2, 2-(3′-(3-(1-(4-(tert-Butyl)benzyl)-4-ethyl-5-oxo-4,5-dihydro-1H-1,2,4-triazol-3-yl)propyl)-[1,1′-biphenyl]-4-yl)acetic acid] | 324
CCn1c(CCCc2cccc(-c3ccc(OCc4ccccc4)c(CC(=O)O)c3)c2)nn(Cc2ccc(C(C)(C)C)cc2)c1=O [Example 15, 2-(4-(Benzyloxy)-3′-(3-(1-(4-(tert-butyl)benzyl)-4-ethyl-5-oxo-4,5-dihydro-1H-1,2,4-triazol-3-yl)propyl)-[1,1′-biphenyl]-3-yl)acetic acid] | 122
CCOc1ccc(-c2cc(CCCc3nn(Cc4ccc(C(C)(C)C)cc4)c(=O)n3CC)ncn2)cc1CC(=O)O [Example 27, 2-(5-(6-(3-(1-(4-(tert-Butyl)benzyl)-4-ethyl-5-oxo-4,5-dihydro-1H-1,2,4-triazol-3-yl)propyl)pyrimidin-4-yl)-2-ethoxyphenyl)acetic acid] | 3430
CCn1c(CCCc2cccc(-c3ccc(OC)c(C(=O)O)c3)c2)nn(Cc2ccc(C(C)(C)C)cc2)c1=O [Example 9, 3′-(3-(1-(4-(tert-Butyl)benzyl)-4-ethyl-5-oxo-4,5-dihydro-1H-1,2,4-triazol-3-yl)propyl)-4-methoxy-[1,1′-biphenyl]-3-carboxylic acid] | 548
CCOc1ccc(CC(=O)O)cc1-c1cccc(CCCc2nn(Cc3ccc(C(C)(C)C)cc3)c(=O)n2CC)c1 [Example 18, 2-(3′-(3-(1-(4-(tert-Butyl)benzyl)-4-ethyl-5-oxo-4,5-dihydro-1H-1,2,4-triazol-3-yl)propyl)-6-ethoxy-[1,1′-biphenyl]-3-yl)acetic acid] | 750
CCn1c(CCCc2cccc(-c3ccc(C)c(C4(C(=O)O)CC4)c3)c2)nn(Cc2ccc(C(C)(C)C)cc2)c1=O [Example 14, 1-(3′-(3-(1-(4-(tert-Butyl)benzyl)-4-ethyl-5-oxo-4,5-dihydro-1H-1,2,4-triazol-3-yl)propyl)-4-methyl-[1,1′-biphenyl]-3-yl)cyclopropanecarboxylic acid] | 234
CCn1c(CCCc2cccc(-c3ccc(OC)c(CC(=O)O)c3)n2)nn(Cc2ccc(C(C)(C)C)cc2)c1=O [Example 24, 2-(5-(6-(3-(1-(4-(tert-Butyl)benzyl)-4-ethyl-5-oxo-4,5-dihydro-1H-1,2,4-triazol-3-yl)propyl)pyridin-2-yl)-2-methoxyphenyl)acetic acid] | 2530
CCn1c(CCCc2cccc(-c3cccc(C(=O)O)c3)c2)nn(Cc2ccc(C(C)(C)C)cc2)c1=O [Example 3, 3′-(3-(1-(4-(tert-Butyl)benzyl)-4-ethyl-5-oxo-4,5-dihydro-1H-1,2,4-triazol-3-yl)propyl)-[1,1′-biphenyl]-3-carboxylic acid] | 1330
CCn1c(CCCc2cccc(-c3cccc(-c4nnn[nH]4)c3)c2)nn(Cc2ccc(C(C)(C)C)cc2)c1=O [Example 25, 3-(3-(3′-(1H-Tetrazol-5-yl)-[1,1′-biphenyl]-3-yl)propyl)-1-(4-(tert-butyl)benzyl)-4-ethyl-1H-1,2,4-triazol-5(4H)-one] | 2290
CCn1c(CCCc2cccc(-c3cccc(CNS(=O)(=O)c4ccccc4)c3)c2)nn(Cc2ccc(C(C)(C)C)cc2)c1=O [Example 20, N-((3′-(3-(1-(4-(tert-Butyl)benzyl)-4-ethyl-5-oxo-4,5-dihydro-1H-1,2,4-triazol-3-yl)propyl)-[1,1′-biphenyl]-3-yl)methyl)benzenesulfonamide] | 896

Molecules with a lower IC50, results first:

IC50 [nM] | SMILES
83 | CCn1c(CCCc2cccc(-c3ccc(F)c(CC(=O)O)c3)c2)nn(Cc2ccc(C(C)(C)C)cc2)c1=O [Example 17, 2-(3′-(3-(1-(4-(tert-Butyl)benzyl)-4-ethyl-5-oxo-4,5-dihydro-1H-1,2,4-triazol-3-yl)propyl)-4-fluoro-[1,1′-biphenyl]-3-yl)acetic acid]
77 | CCn1c(CCCc2cccc(-c3cccc(C4(C(=O)O)CC4)c3)c2)nn(Cc2ccc(C(C)(C)C)cc2)c1=O [Example 7, 1-(3′-(3-(1-(4-(tert-Butyl)benzyl)-4-ethyl-5-oxo-4,5-dihydro-1H-1,2,4-triazol-3-yl)propyl)-[1,1′-biphenyl]-3-yl)cyclopropanecarboxylic acid]
36 | CCCOc1cc(-c2cccc(CCCc3nn(Cc4ccc(C(C)(C)C)cc4)c(=O)n3CC)c2)ccc1CC(=O)O [Example 30, (3′-(3-(1-(4-(tert-Butyl)benzyl)-4-ethyl-5-oxo-4,5-dihydro-1H-1,2,4-triazol-3-yl)propyl)-3-propoxy-[1,1′-biphenyl]-4-yl)acetic acid]
64 | CCOc1ccc(-c2cccc(C(F)(F)CCc3nn(Cc4ccc(C(C)(C)C)cc4)c(=O)n3CC)c2)cc1CC(=O)O [Example 22, 2-(3′-(3-(1-(4-(tert-Butyl)benzyl)-4-ethyl-5-oxo-4,5-dihydro-1H-1,2,4-triazol-3-yl)-1,1-difluoropropyl)-4-ethoxy-[1,1′-biphenyl]-3-yl)acetic acid]
110 | CCn1c(CCCc2cccc(-c3ccc(C(=O)O)cc3)c2)nn(Cc2ccc(C(C)(C)C)cc2)c1=O [Example 4, 3′-(3-(1-(4-(tert-Butyl)benzyl)-4-ethyl-5-oxo-4,5-dihydro-1H-1,2,4-triazol-3-yl)propyl)-[1,1′-biphenyl]-4-carboxylic acid]
59 | CCOc1cc(-c2cccc(CCCc3nn(Cc4ccc(C(C)(C)C)cc4)c(=O)n3CC)c2)ccc1CC(=O)O [Example 29, (3′-(3-(1-(4-(tert-Butyl)benzyl)-4-ethyl-5-oxo-4,5-dihydro-1H-1,2,4-triazol-3-yl)propyl)-3-ethoxy-[1,1′-biphenyl]-4-yl)acetic acid]
